Results as given in US8551997B2, “Structural-based inhibitors of the glutathione binding site in aldose reductase, methods of screening therefor and methods of use” (The Board of Regents of the University of Texas System, priority 2004, dated 2013).
Read-outs that look alike come from different tables or passages of the source.

Assays:
[1] = tested on: Caco-2 cells; assay: Flowcytometric cell cycle analysis, Caco-2; type: cell-based, human; settings: sorbinil 20 μM
Protocol: The Caco-2 and A549 cells were grown separately in 6 well plates at a density of approximately 1.5×10^5 cells/well. Growth-arrested Caco-2 cells were pre-incubated with or without sorbinil 20 μM or carrier for 24 h and then stimulated with either 10 ng/ml BFGF or PDGF for another 24 h. After 24 hrs A549 cells were incubated with or without sorbinil at different concentrations for another 24 h.
The Caco-2 and A549 cells were then washed with PBS and harvested by trypsinization. Cellular DNA was stained with low and high salt solutions. Briefly, cells were resuspended in 250 μl of solution A, low salt stain, containing polyetheleneglycol (30 mg/ml), propidium iodide (0.05 mg/ml), triton-x-100 (1 μl/ml), sodium citrate 4 mM, RNAse A 10 μg/ml and incubated at 37° C. for 20 min followed by the addition of 250 μl of solution B, high salt stain containing 400 mM NaCl instead of 4 mM sodium citrate in solution A, and incubated overnight at 4° C. Cell cycle analysis was performed with a minimum of 10,000 events per analysis by using FACScan flow cytometer (Becton, Dickinson and Co., San Jose, Calif., USA).

[2] = tested on: Caco-2 cells; assay: Western blot of phospho-PKC-b2 in Caco-2 cells; type: cell-based, human; settings: BFGF or PDGF
Protocol: (§1) To examine expression of any of Cox-1, Cox-2, phospho-PKC-2, GAPDH, E2F1, Cyclin D1, Cyclin E, and iNOS proteins, Western blot analyses were carried by known methods (15). Equal amounts of protein from cell extracts were subjected to 12% SDS-PAGE followed by transfer of proteins to nitrocellulose filters, probing with the indicated antibodies, and the antigen-antibody complex was detected by enhanced chemiluminescence (Pierce, Piscataway, N.J., USA).

[3] = tested on: Caco-2 cells; assay: PGE2 assay in Caco-2 cells; type: cell-based, human
Protocol: Caco-2 cells were plated in 6 well plates at a density of 2×10^5 cells/well. After 24 hours, the medium was replaced with fresh medium containing 0.1% serum with or without, sorbinil (20 μM) followed by treatment with either 10 ng/ml BFGF or PDGF, for another 24 h. HT29 cells were plated in 6 well plate at a density of 2×10^5 cells/well. After 24 hours, medium was replaced with serum-free medium with or without, sorbinil or zopolrestat (20 μM) followed by treatment with either EGF (5 ng/ml) or BFGF (10 ng/ml) for another 24 h. The medium from each cell lines was collected from each well and analyzed for PGE2 by using an Enzyme Immuno Assay kit according to the manufacturer's instructions (Cayman Chemical Co., Inc.).
Briefly, 50 μl of diluted standard/sample were pipetted into a pre-coated goat polyclonal anti-mouse IgG 96-well plate. Aliquots (50 μl) of a PGE2 monoclonal antibody and PGE2 acetylcholine esterase (AchE) conjugate, (PGE2 tracer) were added to each well and allowed to incubate at 4° C. for 24 h. After incubation, the wells were washed five times with wash buffer containing 0.05% Tween-20, followed by the addition of 200 μl of Ellman's reagent containing acetylthiocholine and 5,5′-dithio-bis-(2-nitrobenzoic acid). Samples were read after 60 min at 412 nm with an ELISA reader. In this procedure the intensity of yellow color, is proportional to the amount of PGE2 tracer bound to the well and is inversely proportional to the amount of free PGE2 present in the well during incubation.

[4] = tested on: Caco-2 cells; assay: NF-kB p65 transcription factor (DNA binding) assay; type: cell-based, human
Protocol: The cytosolic as well as nuclear extracts were prepared as described earlier (15) and the NF-kB activity was determined by using the colorimetric non-radioactive NF-kB p65 Transcription Factor Assay kit (Chemicon Intl.) as per the supplier's instructions. Briefly, a double stranded biotinylated oligonucleotide containing the consensus sequence for NF-kB binding (5′-[…]-3′; SEQ ID NO: 3) was mixed with nuclear extract and assay buffer. After incubation, the mixture (probe+extract+buffer) was transferred to the streptavidin-coated ELISA kit and read at 450 nm using an ELISA plate reader. For each experiment, triplicate samples were measured for statistical significance.

[5] = tested on: rat VSMC cells; assay: High glucose-induced TNF-a production in VSMC; type: cell-based
Protocol: Growth-arrested VSMC in 5.5 mM glucose (NG) were preincubated for 1 h without or with apocyanin (25 mM), D609 (100 mM), calphostin C (0.2 mM), N-acetyl cysteine (10 mM) and NF-kB inhibitor (18 mM) (FIG. 4A) and without or with sorbinil or tolrestat (10 mM each) (FIG. 4B) followed by the addition of glucose (19.5 mM) and incubation for the indicated times. AR antisense ablated VSMC were incubated with HG for the indicated times (FIG. 4C).
Growth-arrested VSMC in 5.5 mM glucose (NG) were preincubated for 1 h without or with apocyanin (25 mM), D609 (100 mM), calphostin C (0.2 mM), N-acetyl cysteine (10 mM) and NF-kB inhibitor (18 mM) respectively, followed by the addition of 19.5 mM glucose, after which the cells were incubated for 12 and 24 hrs.

[6] = tested on: Caco-2 cells; assay: Western blot of Cox-1 and Cox-2 in Caco-2 cells; type: cell-based, human
Protocol: as §1

[7] = tested on: RAW264.7 macrophages; assay: LPS- and lipid aldehyde-induced signaling in RAW264.7 macrophages; type: cell-based; parameters: HNE and protein-HNE adduct levels: dose or concentration left out as unconfirmed
Protocol: At the indicated times, cells were harvested for measurement of HNE (FIG. 5A), protein-HNE adducts (FIG. 5B), NF-kB (FIG. 5C), and TNF-a and IL-6 (FIG. 5D) as described in the methods. Cells were growth arrested as described above or transfected with control or AR siRNA oligonucleotides, incubated with GS-HNE-ester, or GS-DHN-ester (1 mM), and harvested for determination of NF-kB (FIG. 5E), membrane-bound total PKC (FIG. 5F).
To determine if GS-DHN serves as a cellular sensor of ROS-induced insults, its effects on phosphorylation events upstream of IKK/NF-κB activation in RAW264.7 macrophages was examined.

[8] = tested on: mice; settings: for survival: sorbinil pre-treatment
Protocol: Therefore increasing doses of LPS was administered to determine the dose at which fifty percent lethality occurred (LD50) in the presence or absence of aldose reductase inhibitor (ARI) in order to determine if ARI protected mice for LPS-induced death (FIG. 7D).

[9] = sorbinil 24 h, GS-DHN-ester 24 h

(S)-6-fluorospiro[chroman-4,4′-imidazolidine]-2,5′-dione [sorbinil]
percentage of cells in G1 ([1]; Control): 54.97%
percentage of cells in G2 ([1]; Control): 5.32%
percentage of cells in S ([1]; Control): 39.71%
percentage of cells in G1 ([1]; FGF): 36.31%
percentage of cells in G2 ([1]; FGF): 1.54%
percentage of cells in S ([1]; FGF): 52.15%
percentage of cells in G1 ([1]; PDGF): 36.18%
percentage of cells in G2 ([1]; PDGF): 12.10%
percentage of cells in S ([1]; PDGF): 51.71%
attenuation of increase in PKC-β2 phosphorylation [2]: > 70%
prevention of PGE2 production induced by BFGF and PDGF ([3]; sorbinil 20 μM, 10 ng/ml BFGF or PDGF, 24 h): > 90%
GS-DHN-induced PGE2 production [3, 9]: had no effect
HNE and GS-HNE-induced PGE2 production ([3]; sorbinil 24 h, aldehydes 24 h): significantly prevented
constitutive levels of PGE2 ([3]; sorbinil alone): did not inhibit
inhibition of BFGF or PDGF-induced NF-kB DNA binding activity [4]: > 70%
basal levels of TNF-a ([5]; media containing 5.5 mM glucose, mannitol, or 3-OMG): did not affect
high glucose-induced TNF-a secretion ([5]; preincubated 1 h, then 19.5 mM glucose, apocyanin 25 mM, calphostin C 0.2 mM, N-acetyl cysteine 10 mM, sorbinil or tolrestat 10 mM each, or AR antisense ablated): prevents
growth factor-induced Cox-2 protein [6]: attenuated
levels of constitutive Cox-1 protein [6]: not affected
GS-DHN-induced Cox-2 expression [6, 9]: had no effect
HNE and GS-HNE-induced Cox-2 expression ([6]; sorbinil 24 h, aldehydes 24 h): significantly prevented
HNE and protein-HNE adduct levels [7]: increased
ability of GS-DHN to activate NF-κB [7]: had no effect
effects of HNE/GS-HNE on IKK-a/b phosphorylation and NF-kB translocation [7]: significantly blunted
LPS-induced NF-κB and cytokine activation ([7]; LPS 1 mg/ml, sorbinil 10 mM): significantly decreased
LD50 for LPS with sorbinil post-treatment ([8]; sorbinil 2 h after LPS, 48 h survival): 20 mg/kg
LD50 for LPS with sorbinil pre-treatment ([8]; sorbinil 24 h before LPS, 48 h survival): 24 mg/kg
survival ([8]; LPS 14 mg/kg): approximately 90%
survival ([8]; LPS 24 mg/kg): over 60%
